Laboratory results from US20230027985A1, “SUBSTITUTED HYDANTOINAMIDES AS ADAMTS7 ANTAGONISTS” (Bayer Aktiengesellschaft, priority 2019, published 2023).

Legend:
[1] = molecular target: T1, Purified recombinant ADAMTS-7 (rat prodomain/human catalytic domain, SEQ ID No. 01 or 02) (Homo sapiens, UniProt Q9UKP4); assay: Assay for ADAMTS-7 enzymatic activity (FRET substrate cleavage); format: biochemical; conditions: FRET substrate SEQ ID No. 11, 120 min at 32° C.; read-out: ADAMTS7-IC50
T1 construct: rat ADAMTS-7 signal peptide + prodomain (rat 1-217, Q1EHB3) (N); 2xStrep tag (C); 6xHis tag (C); made in house; host or cells: Expi293 cells
T1 sequence (Q9UKP4 237-537): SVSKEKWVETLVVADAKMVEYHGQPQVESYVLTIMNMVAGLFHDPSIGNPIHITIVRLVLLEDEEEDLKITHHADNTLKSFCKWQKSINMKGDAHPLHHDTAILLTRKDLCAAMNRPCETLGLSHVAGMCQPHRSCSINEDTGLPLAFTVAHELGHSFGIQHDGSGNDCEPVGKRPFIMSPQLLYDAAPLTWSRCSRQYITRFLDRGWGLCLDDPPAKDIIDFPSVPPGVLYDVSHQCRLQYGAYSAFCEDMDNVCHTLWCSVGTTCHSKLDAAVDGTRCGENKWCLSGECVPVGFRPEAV
How it was run: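 About 20 nM enzyme in 20 mM HEPES pH 8.0, 150 mM NaCl, 5 mM CaCl2, 0.004% Brij and 10 μM ZnCl2 was mixed with compound in DMSO and a QXL520-quenched FRET peptide from thrombospondin-1 (275-289). After 120 min at 32 °C, fluorescence was read at 485/520 nm. IC50 came from percent inhibition versus concentration.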

ADAMTS4 = molecular target: T2, ADAMTS4 (Homo sapiens, UniProt O75173); assay: Selectivity assay for ADAMTS-7 modulators (FRET), ADAMTS4; format: biochemical; conditions: 50 nM enzyme (R&D 4307-AD), 1 μM Dabcyl/Edans FRET substrate, 120 min at 32° C.
T2 construct: purchased R&D 4307-AD
T2 sequence (O75173 213-685 limits assumed): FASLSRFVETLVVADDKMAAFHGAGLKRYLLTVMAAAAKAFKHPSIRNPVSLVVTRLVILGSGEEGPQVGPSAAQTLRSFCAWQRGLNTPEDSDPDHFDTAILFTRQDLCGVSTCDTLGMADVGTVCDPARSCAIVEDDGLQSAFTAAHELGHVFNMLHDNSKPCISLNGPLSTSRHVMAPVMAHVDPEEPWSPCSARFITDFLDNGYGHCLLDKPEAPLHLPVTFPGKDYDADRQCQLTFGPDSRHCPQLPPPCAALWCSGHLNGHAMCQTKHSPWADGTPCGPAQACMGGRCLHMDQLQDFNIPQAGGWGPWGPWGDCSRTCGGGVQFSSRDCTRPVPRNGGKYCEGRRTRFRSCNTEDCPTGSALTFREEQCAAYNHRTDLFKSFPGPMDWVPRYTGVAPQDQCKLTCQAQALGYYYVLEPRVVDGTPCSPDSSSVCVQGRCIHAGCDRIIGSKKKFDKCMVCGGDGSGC
How it was run: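 Enzyme in 50 mM Tris pH 7.5, 150 mM NaCl, 10 mM CaCl2, 0.05% Brij, preincubated with compound in DMSO; reaction started with FRET substrate. Fluorescence increase read after 120 min at 32° C; IC50 from percent inhibition versus compound concentration.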

| Compound | IC50 [1] [nM] | IC50 (ADAMTS4) [nM] |
| --- | --- | --- |
| CS(=O)(=O)c1ccc(-n2ncc(C(=O)NC[C@@]3(C4CC4)NC(=O)NC3=O)n2)cc1 [Example 28, N-{[(4R)-4-cyclopropyl-2,5-dioxoimidazolidin-4-yl]methyl}-2-[4-(methylsulfonyl)phenyl]-2H-1,2,3-triazole-4-carboxamide] | 870 | 67000 |
| O=C1NC(=O)[C@](CNC(=O)c2cnn(-c3ccc(F)c(Cl)c3)n2)(C2CC2)N1 [Example 29, 2-(3-chloro-4-fluorophenyl)-N-{[(4R)-4-cyclopropyl-2,5-dioxoimidazolidin-4-yl]methyl}-2H-1,2,3-triazole-4-carboxamide] | 5 | 250 |
| O=C1NC(=O)[C@](CNC(=O)c2cnn(-c3ccc(Cl)c(F)c3)n2)(C2CC2)N1 [Example 30, 2-(4-chloro-3-fluorophenyl)-N-{[(4R)-4-cyclopropyl-2,5-dioxoimidazolidin-4-yl]methyl}-2H-1,2,3-triazole-4-carboxamide] | 12 | 500 |
| O=C1NC(=O)[C@](CNC(=O)c2cnn(-c3ccc(F)cc3F)n2)(C2CC2)N1 [Example 31, N-{[(4R)-4-cyclopropyl-2,5-dioxoimidazolidin-4-yl]methyl}-2-(2,4-difluorophenyl)-2H-1,2,3-triazole-4-carboxamide] | 41 | 4250 |
| O=C1NC(=O)[C@](CNC(=O)c2cnn(-c3ccc(Cl)c(Cl)c3)n2)(C2CC2)N1 [Example 32, N-{[(4R)-4-cyclopropyl-2,5-dioxoimidazolidin-4-yl]methyl}-2-(3,4-dichlorophenyl)-2H-1,2,3-triazole-4-carboxamide] | 35 | 910 |
| O=C1NC(=O)[C@](CNC(=O)c2cnn(-c3ccc(Br)cc3)n2)(C2CC2)N1 [Example 33, 2-(4-bromophenyl)-N-{[(4R)-4-cyclopropyl-2,5-dioxoimidazolidin-4-yl]methyl}-2H-1,2,3-triazole-4-carboxamide] | 58 | 1400 |
| O=C1NC(=O)[C@](CNC(=O)c2cnn(-c3ccc(F)cc3)n2)(C2CC2)N1 [Example 34, N-{[(4R)-4-cyclopropyl-2,5-dioxoimidazolidin-4-yl]methyl}-2-(4-fluorophenyl)-2H-1,2,3-triazole-4-carboxamide] | 26 | 1420 |
| O=C1NC(=O)[C@](CNC(=O)c2cnn(-c3cccc(F)c3F)n2)(C2CC2)N1 [Example 35, N-{[(4R)-4-cyclopropyl-2,5-dioxoimidazolidin-4-yl]methyl}-2-(2,3-difluorophenyl)-2H-1,2,3-triazole-4-carboxamide] | 74 | 3100 |
| O=C1NC(=O)[C@](CNC(=O)c2cnn(-c3cc(F)ccc3F)n2)(C2CC2)N1 [Example 36, N-{[(4R)-4-cyclopropyl-2,5-dioxoimidazolidin-4-yl]methyl}-2-(2,5-difluorophenyl)-2H-1,2,3-triazole-4-carboxamide] | 110 | 5500 |
| O=C1NC(=O)[C@](CNC(=O)c2cnn(-c3ccccc3F)n2)(C2CC2)N1 [Example 37, N-{[(4R)-4-cyclopropyl-2,5-dioxoimidazolidin-4-yl]methyl}-2-(2-fluorophenyl)-2H-1,2,3-triazole-4-carboxamide] | 180 | 7600 |
| O=C1NC(=O)C(CNC(=O)c2cnn(-c3ccccc3)n2)(c2ccccn2)N1 (stereo not drawn) [Example 38, ent-N-{[2,5-dioxo-4-(pyridin-2-yl)imidazolidin-4-yl]methyl}-2-phenyl-2H-1,2,3-triazole-4-carboxamide] | 10 | 2800 |
| C[C@H](NC(=O)c1cnn(-c2ccccc2)n1)C1(C2CC2)NC(=O)NC1=O (stereo partly drawn) [Example 40, ent-N-((1S)-1-(4-Cyclopropyl-2,5-dioxoimidazolidin-4-yl)ethyl)-2-phenyl-2H-1,2,3-triazole-4-carboxamide] | 980 | 25000 |
| O=C1NC(=O)[C@](CNC(=O)c2coc(-c3ccc(F)cc3)n2)(C2CC2)N1 [Example 41, N-{[(4R)-4-cyclopropyl-2,5-dioxoimidazolidin-4-yl]methyl}-2-(4-fluorophenyl)-1,3-oxazole-4-carboxamide] | 55 | 1700 |
| O=C1NC(=O)[C@](CNC(=O)c2nnc(-c3ccc(F)cc3)o2)(C2CC2)N1 [Example 42, N-{[(4R)-4-cyclopropyl-2,5-dioxoimidazolidin-4-yl]methyl}-5-(4-fluorophenyl)-1,3,4-oxadiazole-2-carboxamide] | 350 | 12000 |
| CC1(C)CC1C1(CNC(=O)c2cnn(-c3ccccc3)n2)NC(=O)NC1=O (stereo not drawn) [Example 43, ent-N-{[4-(2,2-dimethylcyclopropyl)-2,5-dioxoimidazolidin-4-yl]methyl}-2-phenyl-2H-1,2,3-triazole-4-carboxamide] | 320 | 13000 |
| CC(C)(C)CC1(CNC(=O)c2cnn(-c3ccccc3)n2)NC(=O)NC1=O (stereo not drawn) [Example 44, ent-N-{[4-(2,2-dimethylpropyl)-2,5-dioxoimidazolidin-4-yl]methyl}-2-phenyl-2H-1,2,3-triazole-4-carboxamide] | 250 | 5000 |
| O=C1NC(=O)[C@](CNC(=O)c2cnn(-c3ccccc3)n2)(C2CC2)N1 [Example 45, N-{[(4R)-4-cyclopropyl-2,5-dioxoimidazolidin-4-yl]methyl}-2-phenyl-2H-1,2,3-triazole-4-carboxamide] | 69 | 1450 |
| O=C1NC(=O)[C@](CNC(=O)c2cnn(-c3ccccn3)n2)(C2CC2)N1 [Example 47, N-{[(4R)-4-cyclopropyl-2,5-dioxoimidazolidin-4-yl]methyl}-2-(pyridin-2-yl)-2H-1,2,3-triazole-4-carboxamide] | 98 | 7650 |
| O=C1NC(=O)[C@](CNC(=O)c2cnn(-c3ccccc3)c2)(C2CC2)N1 [Example 56, N-{[(4R)-4-cyclopropyl-2,5-dioxoimidazolidin-4-yl]methyl}-1-phenyl-1H-pyrazole-4-carboxamide] | 129 | 1800 |
| CC(CO)C1(CNC(=O)c2cnn(-c3ccccc3)n2)NC(=O)NC1=O (stereo not drawn) [Example 57] | 190 | 17000 |
| O=C1NC(=O)[C@](CNC(=O)c2cnc(-c3ccccc3)o2)(C2CC2)N1 [Example 59, N-{[(4R)-4-cyclopropyl-2,5-dioxoimidazolidin-4-yl]methyl}-2-phenyl-1,3-oxazole-5-carboxamide] | 550 | 11300 |
| O=C1NC(=O)[C@](CNC(=O)c2cnn(-c3ccccn3)n2)(C2CC2)N1 [Example 60, N-{[(4R)-4-cyclopropyl-2,5-dioxoimidazolidin-4-yl]methyl}-2-(pyridin-2-yl)-2H-1,2,3-triazole-4-carboxamide] | 259 | 8400 |
| CC(C)C1(CNC(=O)c2cnn(-c3ccccc3)n2)NC(=O)NC1=O (stereo not drawn) [Example 70, ent-N-[(2,5-dioxo-4-(propan-2-yl)imidazolidin-4-yl)methyl]-2-phenyl-2H-1,2,3-triazole-4-carboxamide] | 76 | 10000 |
| CC(C)(C)C1(CNC(=O)c2cnn(-c3ccccc3)n2)NC(=O)NC1=O (stereo not drawn) [Example 71, ent-N-[(4-tert-butyl-2,5-dioxoimidazolidin-4-yl)methyl]-2-phenyl-2H-1,2,3-triazole-4-carboxamide] | 47 | 13100 |
| O=C1NC(=O)C(CNC(=O)c2cnn(-c3ccc(F)cc3)n2)(CC2CC2)N1 (stereo not drawn) [Example 72, ent-N-[(4-(cyclopropylmethyl)-2,5-dioxoimidazolidin-4-yl]methyl]-2-(4-fluorophenyl)-2H-1,2,3-triazole-4-carboxamide] | 130 | 6200 |
| CCCC1(CNC(=O)c2cnn(-c3ccc(F)cc3)n2)NC(=O)NC1=O (stereo not drawn) [Example 73, ent-N-[(2,5-dioxo-4-propylimidazolidin-4-yl)methyl]-2-(4-fluorophenyl)-2H-1,2,3-triazole-4-carboxamide] | 60 | 5100 |
| O=C1NC(=O)C(CNC(=O)c2cnn(-c3ccc(F)cc3)n2)(C2CCCC2)N1 (stereo not drawn) [Example 74, ent-N-[(4-cyclopentyl-2,5-dioxoimidazolidin-4-yl)methyl]-2-(4-fluorophenyl)-2H-1,2,3-triazole-4-carboxamide] | 33 | 5900 |
